Data taken from US6413934B1, “Streptavidin mutants having secondary functional domains” (University of Washington, priority 1998, dated 2002).
Where two headings read alike, the source gives them in different places.

Key:
[1] = molecular target: integrin receptors (on rat aortic endothelial cells); assay: cell-based or functional assay
[2] = tested on: Rat aortic endothelial cells; assay: peptide inhibition of endothelial cell adhesion to FN-SA and OSTP-SA; type: cell-based; conditions: for inhibitory effect on cell adhesion: soluble peptide preincubated with cells 15 minutes
Description: To confirm that the observed cell adhesion was directly RGD dependent, inhibition studies were conducted with GRGDSP (amino acids 89 to 94 of SEQ ID NO:2), GRGESP (SEQ ID NO:8), and GRADSP (SEQ ID NO:9) peptides.
Synthetic hexapeptides GRGDSP (amino acids 89 to 94 of SEQ ID NO:2), GRGESP (SEQ ID NO:8), and GRADSP (SEQ ID NO:9) were purchased from Gibco BRL. The inhibition assay was performed with the same protocol as for the cell adhesion assay except that the cells were incubated with the peptides for 15 minutes at room temperature prior to being plated onto the protein-coated wells.

[3] = tested on: αvβ3 integrin present on the melanoma cells; assay: peptide and antibody inhibition of melanoma cell adhesion to RGD streptavidin mutants; type: cell-based; conditions: human melanoma cells; antibodies at 10 μg/ml
Description: Melanoma cell adhesion assays on streptavidin coated polystyrene dishes were performed as described above for endothelial cell adhesion assays, except that DMEM with 0.1% BSA and 10 mM HEPES was used as culture medium and 2×10^5 cells were added to each well. Moαv cells that express high levels of αvβ3 integrin were derived from M21 melanoma cells. Adhesion assays were performed on self assembled monolayers constructed on 24 well tissue culture polystyrene dishes. The dishes were evaporated with about 400A gold, then incubated with a 0.1 mM ethanolic thiol solution of 20% biotinylated alkylthiol (BAT) and 80% polyethylene glycol (PEG) overnight. The wells were rinsed three times with 100% ethanol, blown dry with nitrogen, then incubated with 0.05 mg/ml of streptavidin in PBS (wild type or mutant) at 37° C. for one hour with side to side rocking. The protein solution was then removed, and the wells were rinsed three times with PBS before addition of cells. Antibody inhibition assays were performed essentially identically as for the RGD/RGE inhibition assays. LM609 and control were obtained from Chemicon International, Inc. (Calif.) and were used at 1:1000 dilution (10 μg/ml).

[4] = off-rate measurement with tritiated biotin; type: binding; conditions: 25° C., PBS pH 7.0
Description: Since the mutations occur in a loop opposite from the biotin binding pocket, the rational design of the molecule should obviate any effect of reducing the off-rate, or dissociation constant of streptavidin. This indeed was observed by experimental koff values for the RGD mutants that are within the standard deviation of previously calculated values for wild type streptavidin. Off-rate measurements were performed at 25° C. to quantitatively characterize the biotin affinity of the mutants and compare the results of the binding affinity of wild type streptavidin. Tritiated biotin, “hot” because it is radioactively labeled, was added to samples of the mutant proteins in a PBS solution, pH 7.0, and allowed to equilibrate for 1 to 2 hours. The off-rate reaction was then initiated by the addition of 5 μL of 15 mM “cold” biotin (non-radioactive) in PBS. As the tritiated biotin dissociated from the streptavidin mutants, aliquots were taken at fixed times and scintillation counts were performed to analyze the beta emission of the tritiated biotin. The natural logarithm of the bound tritiated fractions was plotted versus time to attain the off-rate koff, which is calculated from a linear regression of the data points.

[5] = tested on: Rat aortic endothelial cells; assay: endothelial cell adhesion assay on streptavidin-coated wells; type: cell-based
Description: Rat aortic endothelial cells were cultured in MDCB 131 media (Gibco BRL) with fetal bovine serum and used in the cell adhesion assays. Wild type and RGD streptavidin mutants were incubated in 96 well polystyrene plates overnight at 4° C. at various concentrations and then blocked with 1% BSA in PBS for 1 hour at 37° C. prior to the plating of cells (n=3). Alternatively, biotinylated BSA was incubated in the 96 wells overnight at 4° C., blocked with 1% BSA in PBS for one hour at 37° C., and then streptavidin (wild type or RGD) was incubated in the wells for one hour at 37° C. The protein solution was aspirated and the wells rinsed with sterile PBS before 50,000 cells were plated onto the protein coated wells for one hour at 37° C. The media was removed and the wells were rinsed twice with warm PBS (37° C.). The adherent cells were fixed with 4% paraformaldehyde (PFA) for 5 minutes and stained with 0.5% toluidine blue in 4% PFA for another 5 minutes at room temperature before the wells were rinsed by immersing the plate into a large bowl of tap water. The plate was dried by blotting the inverted plate onto paper towels and the remaining dye in the wells was solubilized with 1% SDS prior to reading the absorbance of the wells with a plate reader at 595 nm.

Work on “Fibronectin Streptavidin (streptavidin having incorporated therein RGD with flanking amino acids as in fibronectin) (designed binder)” yielded an absorbance at 595 nm (adhered rat aortic endothelial cells) (absorbance at 595 nm) [1] of 0.3 and a coating concentration at saturation of cell adhesion [1] of 100 nM.

With GRADSP the “inhibitory effect on cell adhesion” value [2] was “no noticeable inhibitory effect”.

With GRGDSP [RGD peptide] the “inhibitory effect on cell adhesion at 100 μm peptide” value ([2]; 100 μM peptide) was “inhibited cell adhesion”, the “inhibitory effect on cell adhesion” value [2] was “inhibited cell adhesion in a dose-dependent manner” and the “inhibition of cell adhesive activity of the RGD mutants” value [3] was “can be inhibited”.

For GRGESP, the “inhibitory effect on cell adhesion” value [2] was “no noticeable inhibitory effect”.

With “Osteopontin Streptavidin (streptavidin having incorporated therein RGD with flanking amino acids as in osteopontin) (designed binder)” the absorbance at 595 nm (adhered rat aortic endothelial cells) (absorbance at 595 nm) [1] was 0.3 and the coating concentration at saturation of cell adhesion [1] was 100 nM.

With “Wild type streptavidin: naturally occurring tetrameric biotin-binding protein of Streptomyces avidinii, SEQ ID NO:1” the koff [4] was 3.3±0.1×10^−6 /sec, the “cell adhesion (absorbance at 595 nm, visual inspection)” value [5] was “does not display any cell adhesion above control levels” and the “cell adhesion (absorbance at 595 nm, visual inspection)” value ([5]; listed as wild type) was “comparable to those for 1% SDS”.

B1: FN-SA: streptavidin mutant incorporating the RGD sequence and flanking residues from fibronectin, SEQ ID NO:2 (protein)
chain: MRKIVVAAIAVSLTTVSITASASADPSKDSKAQVSAAEAGITGTWYNQLGSTFIVTAGADGALTGTYESAVGNAESRYVLTGRYDSAPGRGDSPGSGTALGWTVAWKNNYRNAHSATTWSGQYVGGAEARINTQWLLTSGTTEANAWKSTLVEHDTFTKVKPSAASIDAAKKAGVNNGNPLDAVQQ
B1 showed a koff [4] of 3.28e-06 s⁻¹.

B2: OSTP-SA: streptavidin mutant incorporating the RGD sequence and flanking residues from osteopontin, SEQ ID NO:3 (protein)
chain: MRKIVVAAIAVSLTTVSITASASADPSKDSKAQVSAAEAGITGTWYNQLGSTFIVTAGADGALTGTYESAVGNAESRYVLTGRYDSAPGRGDSVGSGTALGWTVAWKNNYRNAHSATTWSGQYVGGAEARINTQWLLTSGTTEANAWKSTLVEHDTFTKVKPSAASIDAAKKAGVNNGNPLDAVQQ
For B2, the koff [4] was 3.13e-06 s⁻¹.
